Reference: PMC3954902 (Journal of medicinal chemistry, 2013)

Experiments:
NS5B = settings: read-out: NS5B IC50 reported by Kumar et al.; literature value; cited from earlier work
[1] = system: HCV genotype 1b subgenomic replicon in Huh-5-2 cells; assay: Replicon assay on Huh5-2; assay type: cell-based, Hepatitis C virus; settings: for Replicon assay on Huh5-2 SI (ratio of CC50 to EC50): Huh-5-2 cells; for anti-HCV activity and toxicity in words: Huh-5-2 replicon and MTS
recombinant HCV NS5BCΔ21 = recombinant HCV NS5BCΔ21 (Hepatitis C virus genotype 1b, UniProt O92972); assay: NS5B polymerase primer-dependent elongation assay; assay type: biochemical, HCV genotype 1b (HC-J4); settings: for fold reduction in potency against NS5B relative to derivative 8: ratio of IC50 values vs 8
Huh-9-13 cells = assay: MTS assay and microscopic analysis on Huh 9-13 cells; assay type: cell-based

## COc1cc2c(=O)c(C(=O)OCc3ccc(C)cc3)cn(Cc3ccc(C(F)(F)F)cc3F)c2cc1OC [Compound 2, reference compound]
NS5B
  IC50: 8 nM
[1]; Huh-5-2, data not shown
  selectivity of anti-HCV effect from dose-response curve: non-selective anti-HCV agent

## Cc1ccc(COC(=O)c2cn(Cc3ccc(C(F)(F)F)cc3F)c3cc(Cl)c(N)cc3c2=O)cc1 [Compound 4, 4-Methylbenzyl 6-amino-7-chloro-1-[2-fluoro-4-(trifluoromethyl)benzyl]-4-oxo-1,4-dihydro-3-quinolinecarboxylate]
[1]
  Replicon assay on Huh5-2 SI (ratio of CC50 to EC50): >2.5
  anti-HCV activity and toxicity in words: neither active nor toxic

## Nc1cc2c(=O)c(C(=O)OCc3ccc(Cl)cc3)cn(Cc3ccc(Cl)cc3)c2cc1Cl [Compound 5, 4-Chlorobenzyl 6-amino-7-chloro-1-(4-chlorobenzyl)-4-oxo-1,4-dihydro-3-quinolinecarboxylate]
[1]
  anti-HCV activity and toxicity in words: neither active nor toxic
Recombinant HCV NS5BCΔ21; 25 µM compound concentration
  inhibition of NS5B RdRp activity in preliminary screening: inactive

## CN1CCN(c2cc3c(cc2N)c(=O)c(C(=O)OCc2ccc(Cl)cc2)cn3Cc2ccc(Cl)cc2)CC1 [Compound 7, 4-Chlorobenzyl 6-amino-1-(4-chlorobenzyl)-7-(4-methyl-1-piperazinyl)-4-oxo-1,4-dihydro-3-quinolinecarboxylate]
Recombinant HCV NS5BCΔ21; head to head, same assay conditions
  fold higher NS5B inhibition than reference compound 2: 5 fold

## Nc1cc2c(=O)c(C(=O)OCc3ccc(Cl)cc3)cn(Cc3ccc(Cl)cc3)c2cc1N1CCN(c2ccccn2)CC1 [Compound 8, 4-Chlorobenzyl 6-amino-1-(4-chlorobenzyl)-4-oxo-7-[4-(2-pyridinyl)-1-piperazinyl]-1,4-dihydro-3-quinolinecarboxylate]
Huh-9-13 cells
  cellular morphology by microscopic analysis: cell aggregation

## Nc1cc2c(=O)c(C(=O)OCc3ccc(Cl)cc3)cn(Cc3ccc(Cl)cc3)c2cc1N1CCN(c2nc3ccccc3s2)CC1 [Compound 9, 4-Chlorobenzyl 6-amino-7-[4-(1,3-benzothiazol-2-yl)-1-piperazinyl]-1-(4-chlorobenzyl)-4-oxo-1,4-dihydro-3-quinolinecarboxylate]
[1]
  Replicon assay on Huh5-2 SI (ratio of CC50 to EC50): >17

## Nc1cc2c(=O)c(C(=O)OCc3ccc(Cl)cc3)cn(Cc3ccc(Cl)cc3)c2cc1N1CCN(c2cccc(C(F)(F)F)c2)CC1 [Compound 10, 4-Chlorobenzyl 6-amino-1-(4-chlorobenzyl)-4-oxo-7-{4-[3-(trifluoromethyl)phenyl]-1-piperazinyl}-1,4-dihydro-3-quinolinecarboxylate]
[1]
  Replicon assay on Huh5-2 SI (ratio of CC50 to EC50): >6

## CCOC(=O)c1cn(Cc2ccc(Cl)cc2)c2cc(N3CCN(c4ccccn4)CC3)c(N)cc2c1=O [Compound 27, Ethyl 6-amino-1-(4-chlorobenzyl)-4-oxo-7-[4-(2-pyridinyl)-1-piperazinyl]-1,4-dihydro-3-quinolinecarboxylate]
Recombinant HCV NS5BCΔ21
  fold reduction in potency against NS5B relative to derivative 8: ~ 45 fold

## Nc1cc2c(=O)c(C(=O)O)cn(Cc3ccc(Cl)cc3)c2cc1N1CCN(c2ccccn2)CC1 [Compound 28, 6-amino-1-(4-chlorobenzyl)-4-oxo-7-[4-(2-pyridinyl)-1-piperazinyl]-1,4-dihydro-3-quinolinecarboxylic acid]
[1]
  Replicon assay on Huh5-2 SI (ratio of CC50 to EC50): >28
Recombinant HCV NS5BCΔ21
  fold reduction in potency against NS5B relative to derivative 8: 345 fold
